A word on the EC90: it is the point of the concentration-response curve where the effect stands at 90%.

SMILES strings stand for the structures.

Consider three compounds from patent US20260335274A1, “COMPOSITIONS AND METHODS OF MINIMIZING LONG COVID” (priority 2022, published 2026).

Series [1] relates to OC43 human coronavirus. Put plainly: Direct contact (contact inhibition) antiviral test, TCID50. The note with it: Betacoronavirus 1, OC43, MRC5, in Homo sapiens, 0.5 h, read-out: reduction of OC43 infectivity.
Series [2] concerns OC43 human coronavirus. Put plainly: Post-infection test, MRC-5 cells, TCID50. It counts as cell-based, human coronavirus OC43 (MRC-5 human cells as host). As to conditions: 10 min exposure; for inhibition at 50 µM: read-out: titer reduction, post-infection. As for the experimental part:
Then, 100 μl of either EC16 formulations or Remdesivir solutions of various concentrations were applied onto the cells for 10 min before being replaced by serum-free EMEM. The TCID50 values were determined after incubation for 4-7 days.

Series [3] in a line: Cytotoxicity of F18m in normal saline, MTT assay. The note with it: human, hnepc; EC16m in saline formulation, 60 min exposure; read-out: concentration not toxic to HNEpC. Type of series: cell-based. As to the method:
The F18m glycerol stock was diluted 10× with normal saline to 1.4 mM of EC16m. A series dilution of this nanoformulation in Airway Growth Medium was applied to a monolayer of Human […] Primary Epithelial Cells (HNPEC, PromoCell) and incubated for 1 h before medium change and overnight incubation, followed by straining with an MTT assay.
For orientation: Tetrazolium dyes change colour on reduction, which living cells bring about.

In series [4] the test system is OC43 human coronavirus. Put plainly: Pre-infection test, MRC-5 cells, TCID50. It counts as cell-based, human coronavirus OC43 (MRC-5 human cells as host). As to conditions: MRC5, 10 min; 50 μM EC16m, 10 min incubation before virus; read-out: reduction in viral infectivity, pre-infection. As to the method: EC16m nasal formulations were incubated with MRC-5 cells in 96 well plates for 10 min, and then removed. A series dilution of OC43 in serum-free EMEM was added to the cells and incubated for 1 h. The viral dilutions were then replaced with serum-free EMEM, and TCID50 infection rate was determined after 4-7 days of incubation.

The next series deals with SARS-CoV-2. As to conditions: one-hour incubation; cited from earlier work.
For series [5] the following is noted: in vivo, cited from earlier work.

As for `CCCCCCCCCCCCCCCC(=O)Oc1c(O)cc(C2Oc3cc(O)cc(O)c3CC2OC(=O)c2cc(O)c(O)c(O)c2)cc1O` (centres unmarked) [EC16m, Epigallocatechin-3-Gallate-mono-palmitate], the inhibition at 50 µM is 99.9% in the series with OC43 human coronavirus [1]; 99.8% with OC43 human coronavirus [2] (MRC5, 10 min, 50 μM); 98.5% in the series with OC43 human coronavirus [4]. Moreover, in the series with OC43 human coronavirus [2] (12.5 μM EC16m), the “inhibition of viral replication, post-infection” value was determined as 99%. Besides, in the series on OC43 human coronavirus [2] (MRC5, 10 min, 12.5 μM EC16m, read-out: inhibition of viral replication, post-infection), the inhibition at 12.5 µM was above 99%. Further, the MNTC at 1 h in series [3] was below 280 µM.

For the compound `O=C(O[C@@H]1Cc2c(O)cc(O)cc2O[C@@H]1c1cc(O)c(O)c(O)c1)c1cc(O)c(O)c(O)c1` [EGCG, epigallocatechin-3-gallate], the EC90 in the series with SARS-CoV-2 is 69 µM. Besides, the bioavailability result in series [5] is recorded as “very low”. In addition, in series [5] (read-out: serum maximum concentration), the Cmax is 570 nM.

Consider `CCC(CC)COC(=O)[C@H](C)N[P@](=O)(OC[C@H]1O[C@@](C#N)(c2ccc3c(N)ncnn23)[C@H](O)[C@@H]1O)Oc1ccccc1` [remdesivir, reference compound], for which the inhibition at 50 µM in the series on OC43 human coronavirus [2] (MRC5, 10 min, 50 μM) was determined as 99.8%. Further, the log reduction at 50 µM in the series on OC43 human coronavirus [2] (MRC5, 10 min, 50 μM, n=4, read-out: log10 titer reduction, post-infection) was 2.69 ± 0.24.
